Laboratory results: BindingDB's records for doi:10.1021/jm00167a035 (Squibb Institute For Medical Research, 1990)

Assay: Inhibition of [3H]nitrendipine binding to L-type calcium channel in guinea pig ventricular myocardium membranes

Compound	Kd
CCOC(=O)C1=C(C)N=C(OC)NC1c1cccc([N+](=O)[O-])c1 (configuration not stated)	105 nM
CCOC(=O)C1=C(C)NC(N(C)C)=NC1c1cccc([N+](=O)[O-])c1 (configuration not stated)	3400 nM
COC(=O)C1=C(C)N=C(SC)NC1c1cccc([N+](=O)[O-])c1 (configuration not stated)	120 nM

Results, then the molecule that gave them:

Kd	Compound
35 nM	CCOC(=O)C1=C(C)NC(SC)=NC1c1ccccc1C(F)(F)F (configuration not stated)
12 nM	CSC1=NC(c2cccc([N+](=O)[O-])c2)C(C(=O)OC(C)C)=C(C)N1 (configuration not stated)
2.6 nM	CCC(C)OC(=O)C1=C(C)NC(SC)=NC1c1cccc([N+](=O)[O-])c1 (configuration not stated)

Assay: as above
Remark: another data set of the same source

Compound	Kd
CCOC(=O)C1C(C)=NC(SC)=NC1c1cccc([N+](=O)[O-])c1 (configuration not stated)	23 nM
